#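 48-hour exposure; five concentrations; linearly interpolated endpoints. At the GI50, growth is halved. The concentration for full growth arrest is given as TGI.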
# Assays:
# Assay in all cases: DTP human tumour cell line panel, 48 h
# [1] = test system: ACHN renal
# [2] = test system: CCRF-CEM leukemia
# [3] = test system: COLO 205 colon
# [4] = test system: DU-145 prostate
# [5] = test system: OVCAR-4 ovarian
# [6] = test system: PC-3 prostate
# [7] = test system: SF-539 CNS
# [8] = test system: SK-OV-3 ovarian
# [9] = test system: UACC-257 melanoma
# [10] = test system: NCI-H226 lung
SMILES,TGI [1] [µM],TGI [2] [µM],TGI [3] [µM],TGI [4] [µM],TGI [5] [µM],TGI [6] [µM],TGI [7] [µM],TGI [8] [µM],TGI [9] [µM],TGI [10] [µM],GI50 [1] [µM],GI50 [3] [µM],GI50 [4] [µM],GI50 [10] [µM],GI50 [6] [µM],GI50 [7] [µM],GI50 [8] [µM],GI50 [9] [µM],GI50 [5] [µM],GI50 [2] [µM]
CCCCN(CCCC)CCC(O)c1cc2c(Cl)cc(Cl)cc2c2cc(C(F)(F)F)ccc12 (centres undefined),25.6,29,23.6,22,28.5,22.2,30.1,26.9,29.6,,,,,,,,,,,
Cc1ccc(NC(=S)SCCC(=O)O)cc1,> 100,> 100,> 100,,> 100,,> 100,,> 100,> 100,,,,,,,,,,
COc1ccc(/C=c2/sc3n(c2=O)NC2(CCC(C)CC2)NN=3)cc1 (centres undefined),> 100,> 100,> 100,,> 100,,> 100,> 100,,> 100,,,,,,,,,,
COc1ccc2c(Cl)cc(NC(=O)Nc3c(C)cccc3C)nc2c1,24.7,,> 100,> 100,,> 100,46.3,83,> 100,6.14,3.59,46,28.4,2.29,24.5,19.8,4.37,20,,
CC12CO[C@@](C)(CC(S(=O)(=O)c3ccccc3)C1)O2 (some centres undefined),> 100,> 100,> 100,,> 100,,> 100,> 100,> 100,,,,,,,,,,,
COC(=O)C1C=NNC1C(=O)OC (centres undefined),> 100,> 100,> 100,,> 100,,> 100,> 100,> 100,> 100,,,,,,,,,,
Cc1ccc(C2=Nc3c(N)ncnc3NC(c3ccc4c(c3)OCO4)C2)cc1 (centres undefined),36.7,,21.7,14.7,74.9,,21.7,52.3,> 100,47.9,7.74,3.47,4.52,12.6,,4.98,15.8,40,17.7,
C=CC1(NS(=O)(=O)c2ccc(C)cc2)CCC(C(C)(C)C)CC1 (centres undefined),> 100,> 100,> 100,,> 100,,> 100,> 100,> 100,> 100,,,,,,,,,,
CCCNC(=O)c1ccc(Cl)cc1Cl,> 100,,> 100,> 100,> 100,> 100,> 100,> 100,> 100,> 100,> 100,> 100,> 100,> 100,> 100,> 100,> 100,> 100,> 100,
Cc1ccn2c(CCc3nnc4cc(C)ccn34)nnc2c1,> 100,,> 100,> 100,> 100,> 100,> 100,> 100,> 100,> 100,,,,,,,,,,
OCCNCCCOc1ccc2ncnc(Nc3ccc(Oc4cccc(C(F)(F)F)c4)c(Cl)c3)c2c1,2.28,4.42,,2.66,,3.21,3.07,,,,1.09,,1.33,,1.66,1.64,,,,1.66
O=C(CC1(O)C(=O)Nc2ccccc21)c1ccc(O)cc1 (centres undefined),> 100,> 100,> 100,,> 100,,> 100,> 100,> 100,> 100,,,,,,,,,,
Cc1cccc(N2C(=O)C(=O)C(c3nc4ccccc4s3)/C(=N/NC(=S)NN)C2=O)c1C (centres undefined),> 100,,> 100,,> 100,,> 100,> 100,> 100,> 100,,,,,,,,,,
CC(CNCCCNCCNCCCNCO)[N+](=O)[O-] (centres undefined),30.3,11.5,19.3,,27.9,,29.2,> 100,26.1,,,,,,,,,,,
C[C@]1(Cn2ccnn2)C(C(=O)O)N2C(=O)CC2S1(=O)=O (some centres undefined),> 100,,> 100,> 100,> 100,> 100,> 100,> 100,> 100,> 100,> 100,> 100,> 100,> 100,> 100,> 100,> 100,> 100,> 100,
CCN(CC)C(=O)N1CCN(C=S)CC1,> 100,> 100,> 100,,> 100,,> 100,> 100,> 100,> 100,,,,,,,,,,
O=[N+]([O-])c1cc(Cl)ccc1OCc1ccccc1,> 100,> 100,> 100,,> 100,,> 100,> 100,> 100,,,,,,,,,,,
CC1C[C@]2(C[C@@H](C)C(=O)O2)O[C@@H]2CC3(C)[C@@H]4CCC5C(C)(C)OC(=O)C[C@H]6OO[C@]4(CC[C@]3(C)C12)CC56O (some centres undefined),> 100,,,,> 100,,> 100,> 100,> 100,> 100,,,,,,,,,,
CC1=C(C(=O)Nc2ccc([N+](=O)[O-])cc2)C(c2ccc3c(c2)OCO3)C(C(=O)Nc2ccc([N+](=O)[O-])cc2)=C(C)N1,> 100,,18.4,,> 100,,> 100,> 100,50.7,55.8,,,,,,,,,,
C/C=C/[C@H]1O[C@@H]2C(=C[C@H]1O)C(=O)O[C@H]2C,22.9,,> 32.1,21.4,33.3,30.8,3.38,> 66.7,43.7,48.1,7.71,4.02,5.76,18.4,14.8,,> 50.2,21.7,12.3,
CN[C@@H](C)[C@H](N)c1ccccc1,> 100,> 100,> 100,,,,> 100,> 100,> 100,> 100,,,,,,,,,,
C=C1C2CC(OC(C)=O)C3(C)C(c4ccoc4)OC(=O)[C@@H](O)[C@]13OC1C[C@H](OC(C)=O)C(C)(C)[C@H](CC(=O)OC)[C@]12C (some centres undefined),> 100,> 100,> 100,,> 100,,> 100,> 100,,> 100,,,,,,,,,,
